Measurements taken from US8173768B2, “Peptides having antimicrobial and neurotrophic activity and uses thereof” (priority 2009, dated 2012).
Bridge positions count the residues as written; N and C are the ends. Square brackets hold non-standard residues; d marks the D form. Ends that are not written are not given here. Peptide text beside a SMILES is read from it. Phe(ol) = N[C@H](CO)Cc1ccccc1; Aib = CC(C)(N)C(=O)O

Assays:
[1] = pore-forming activity (dissipation of membrane potential in liposomes); type: biochemical
Method: Antimicrobial assays: After each purification step, antibacterial activity was monitored by a solid plate assay as described in previous studies (14). The minimal inhibitory concentration (MIC) and the minimal bactericidal concentration (MBC) were determined according to the method of Hancock (http://cmdr.ubc.ca/bobh/showmethod.php?methodid=79). Permeabilization of bacterial membranes and pore-forming activity were assayed as previously described (Herbst, R et al. (2002), J Biol Chem 277:22353-22360; Leippe, M. et al. 1991. Proc Natl Acad Sci USA 88:7659-7663).
No activity was found towards the Gram negative A. hydrophila at the same concentration. […] Since neuromacin contains four histidine residues in its primary structure (in contrast to none in theromacin), we evaluated the effect of a more acidic pH, at which the histidine residues are protonated, on the membrane-permeabilizing activity (FIG. 5B). […] Similar activity against the Gram-negative representative E. coli was not detected up to a neuromacin concentration of 25 μM (data not shown). We also measured the pore-forming activity of neuromacin to further characterize its mode of action by using a minimalistic membrane system. More precisely, we monitored the dissipation of a membrane potential induced in liposomes composed of azolectin, a crude phospholipid mixture from soy bean.

[2] = test system: Gram negative A. hydrophila; assay: liquid growth inhibition assay; type: cell-based, Aeromonas hydrophila; conditions: at the same concentration as against M. nishinomiyaensis
Source text: Microorganisms: The Gram-positive and Gram-negative bacteria Micrococcus nishinomiyaensis and Aeromonas hydrophila respectively were isolated from the natural environment of Hirudo medicinalis. These bacterial colonies, which are present in the water, were selected from agar plate under aerobic conditions at room temperature using a random isolation grid. The Gram-positive bacteria Bacillus megaterium was used for the SYTOX Green assay.
(§1) Antimicrobial assays: After each purification step, antibacterial activity was monitored by a solid plate assay as described in previous studies (14). The minimal inhibitory concentration (MIC) and the minimal bactericidal concentration (MBC) were determined according to the method of Hancock (http://cmdr.ubc.ca/bobh/showmethod.php?methodid=79). […]
No activity was found towards the Gram negative A. hydrophila at the same concentration. […] Since neuromacin contains four histidine residues in its primary structure (in contrast to none in theromacin), we evaluated the effect of a more acidic pH, at which the histidine residues are protonated, on the membrane-permeabilizing activity (FIG. 5B). […] Similar activity against the Gram-negative representative E. coli was not detected up to a neuromacin concentration of 25 μM (data not shown). […]

[3] = test system: B. megaterium; assay: SYTOX Green membrane permeabilization assay; type: cell-based, Bacillus megaterium
Method: FIG. 5 illustrates membrane permeabilization of B. megaterium induced by neuromacin. Membrane damage of the bacteria was measured fluorometrically using the dye SYTOX Green. […] Antibacterial activity of the peptides is expressed as a percentage of permeabilized bacteria. (A) Time kinetics of membrane permeabilization induced by neuromacin measured for different doses at various incubation periods. (B) Membrane permeabilizing effects of neuromacin (rhombs) in comparison with cecropin P1 (triangles) and magainin II (circles) after 30 min of incubation of B. megaterium with each peptide at various concentrations, at pH 5.2 (open symbols) and at pH 7.4 (closed symbols). […]
as §1
No activity was found towards the Gram negative A. hydrophila at the same concentration. […] Since neuromacin contains four histidine residues in its primary structure (in contrast to none in theromacin), we evaluated the effect of a more acidic pH, at which the histidine residues are protonated, on the membrane-permeabilizing activity (FIG. 5B). […]

[4] = test system: axotomized nerve cords; assay: regeneration of axotomized leech nerve cord ex vivo (time-lapse); design: species or system Hirudo medicinalis; conditions: native neuromacin 4 μM, aseptic conditions; 4 days without neuromacin
Method: Collection and treatment of the nerve cords: Adult leeches, Hirudo medicinalis species, weighting 2-3 g were purchased from a commercial supplier (Ricarampex, France). Animals were kept in artificial pond water and starved up to 3 weeks before use. Leeches were anaesthetised in 10% ethanol-spring water for 20 min and the nerve cords were removed according to the protocol of Nicholls et al (J Neurophysiol, 1968, 31:740-756.). After three successive baths in antibiotics, cords were placed in Leibowitz-15 (L-15, Gibco) culture medium supplemented with 2% fetal calf serum, 0.6% glucose and gentamicin ([…]) (Nature, 1979, 281:67-69). Connectives between ganglia were injured in a standard manner using a pair of sterilized fine iridectomy scissors. Axotomized nerve cords were separately incubated in L-15 medium containing different microbial components: 3×10^7 CFU/ml of heat killed or live bacteria, 10 μg/ml of polyI:C (Invivogen), 100 μg/ml of zymosan (Invivogen,) and 100 μg/ml of mannane (Invivogen) for different time (t=0 to t=8 days) at room temperature. Incubations without microbial components or bacteria were performed in the same conditions as controls. All the steps were performed under sterile conditions. […]

| Compound | pore-forming activity ([1]; positive control at 50 nM (data not shown)) | activity towards A. hydrophila [2] | activity relative to cecropin P1 and magainin II ([3]; B. megaterium, within the measurement period) | efficacy to induce membrane lesions, effect of pH ([3]; pH 5.2 versus pH 7.4, FIG. 5B) | pore-forming activity ([1]; final concentrations up to 2 μM (data not shown)) | start of reconnection post-axotomy [4] |
| --- | --- | --- | --- | --- | --- | --- |
| CC(=O)NC(C)(C)C(=O)N1CCC[C@H]1C(=O)NC(C)(C)C(=O)N[C@@H](C)C(=O)NC(C)(C)C(=O)N[C@@H](C)C(=O)N[C@@H](CCC(N)=O)C(=O)NC(C)(C)C(=O)N[C@H](C(=O)NC(C)(C)C(=O)NCC(=O)N[C@@H](CC(C)C)C(=O)NC(C)(C)C(=O)N1CCC[C@H]1C(=O)N[C@H](C(=O)NC(C)(C)C(=O)NC(C)(C)C(=O)N[C@@H](CCC(=O)O)C(=O)N[C@@H](CCC(N)=O)C(=O)N[C@H](CO)Cc1ccccc1)C(C)C)C(C)C [alamethicin, reference compound] (Ac-[Aib]P[Aib]A[Aib]AQ[Aib]V[Aib]GL[Aib]PV[Aib][Aib]EQ[Phe(ol)]) | very strong signal |  |  |  |  |  |
| H-DCYEDWSRCTPGTSFLTGILWKDCHSRCKELGHRGGRCVDSPSKHCPGVLKNNKQCHCY (disulfide 2-46, 9-38, 24-56, 28-58) [neuromacin] |  | No activity | over one order of magnitude lower | weaker at pH 5.2 than at pH 7.4 | not detected | less than 24 hours |
